According to patent publication US12234216B2, “Isotopologues salts, crystalline forms, stereoisomers, of methylone and ethylone and methods of use thereof” (Terran Biosciences Inc., priority 2021, dated 2025):
Structures can show the parent of a compound that is named as a salt.

Test system: Male Sprague-Dawley rats
Test: Rat elevated zero-maze model of anxiety
Assay type: in vivo
Description: The rat zero-maze model is a refined alternative to the plus-maze, the most widely used animal model of anxiety, and consists of an elevated annular platform, divided equally into four quadrants. Two opposite quadrants are enclosed by Perspex walls on both the inner and the outer edges of the platform, while the remaining two opposite quadrants are open being enclosed only by a Perspex “lip”. Animals will show a preference for the closed areas, and avoidance of the open sections is assumed to stem from a rodent's natural aversion to open, exposed spaces. The primary index of anxiety, which reflect changes in open arm preference, is the percentage of time spent on the open areas. A reduction in the amount of activity on the open areas is considered to reflect an increase in anxiety. Other, ethologically-based behaviours are also assessed as indices of anxiety. One of the most important is stretched attend postures (SAP) from closed to open quadrants. […] Shepherd, J K; et al., (1994) Behavioural and pharmacological validation of the elevated “zero-maze” as an animal model of anxiety. Psychopharmacol., 116:56-64.
Male Sprague-Dawley 200-250 g (Envigo UK) rats were used. Animals were group-housed (5 per cage; cage size: 40×40×20 cm) in a temperature-controlled environment (22±2° C.), under a 12 h light-dark cycle (lights on: 08:00 hours) for one week prior to testing. Food and water were freely available. Number of animals per group=5. Animals were moved into the experimental room 16-24 hours before testing.
The elevated 0-maze comprises a black Perspex annular platform (105 cm diameter, 10 cm width) elevated to 65 cm above ground level, divided equally into four quadrants. Two opposite quadrants are enclosed by clear red Perspex walls (27 cm high) on both the inner and outer edges of the platform, while the remaining two opposite quadrants are surrounded only by a Perspex “lip” (1 cm high) which serves as a tactile guide to animals on these open areas.
Subjects were weighed and tail marked before being injected. After a specified pre-treatment time, subjects were placed in a closed quadrant and a 5-min test period were recorded on videotape for subsequent analysis. The maze were cleaned with 5% methanol/water solution and dried thoroughly between test sessions. Behavioural measures comprise percentage time spent on the open areas (% TO) and frequency of stretched attend postures (SAP) from closed to open quadrants. Since the control groups were all treated identically with the same vehicle these were combined to increase power. The Chlordiazepoxide groups were also treated identically with the same dose so these were also combined to increase power. Animals are scored as being in the open area when all four paws were in an open quadrant and in the closed area only when all four paws have passed over the open-closed divide. All testing were carried out between 9.00 and 16.00 hours.
For each study, a 1-way ANOVA was conducted across vehicle, CDP, and drug treatment groups. Each group was compared to the vehicle group and a p-value for treatment determined by Fishers Least Significant Difference (LSD) test. This analysis was performed in GraphPad Prism (Version 9). Formulations: […]
Intraperitoneal (IP): Racemic methylone HCl was formulated in Vehicle 1 (Saline) for injection to concentrations of 1, 3 and 6 mg/mL to provide doses of 5, 15 and 30 mg/kg when administered ip in 5 mL/kg dosing volumes.
Intraperitoneal (IP): S-methylone HCl was formulated in Vehicle 1 (Saline) for injection to concentrations of 0.5, 1, 1.5, 3 and 6 mg/mL to provide doses of 2.5, 5, 7.5, 15 and 30 mg/kg when administered ip in 5 mL/kg dosing volumes.
Intraperitoneal (IP): R-methylone HCl was formulated in Vehicle 1 (Saline) for injection to concentrations of 1, 3 and 6 mg/mL to provide doses of 5, 15 and 30 mg/kg when administered ip in 5 mL/kg dosing volumes. […]

SMILES: CNC(C)C(=O)c1ccc2c(c1)OCO2 (racemic) [(rac)-Methylone Hydrochloride, 3,4-methylenedioxy-N-methylcathinone hydrochloride]
- overall effect on anxiety (5 mg/kg ip): anxiogenic effect
- time spent in the open arms (5 mg/kg ip, vs placebo): decrease in time spent in the open arms vs placebo
- frequency of SAPs (15 mg/kg ip): dose dependent decrease in SAPs
- overall effect on anxiety (15 mg/kg ip): mixed anxiogenic anxiolytic effect
- decrease in SAPs compared with chlordiazepoxide (15 mg/kg ip vs chlordiazepoxide 6 mg/kg ip): not as effective as chlordiazepoxide
- time spent in the open arms (15 mg/kg ip, vs placebo): no difference from placebo in time spent in the open arms
- frequency of SAPs (30 mg/kg ip): decrease in SAPs
- time spent in the open arms (30 mg/kg ip): significant decrease in time spent in the open arms
- anxiolytic effects compared with chlordiazepoxide (high dose level): anxiolytic effects as effective as chlordiazepoxide
- anxiogenic effects at lower doses (lower doses, ip): anxiogenic effects at lower doses
- time in the open arms (specific doses, ip, 30 min pretest, FIGS. 62-64): increase time in the open arms
- frequency of SAPs (specific doses, ip, 30 min pretest, vs chlordiazepoxide 6 mg/kg, FIGS. 65-67): decreased the frequency of SAPs as effectively as the benzodiazepine chlordiazepoxide
